According to patent US12410174B1, “Small molecular inhibitors of sting signaling compositions and methods of use” (TYERELL IMMUNOTHERAPEUTICS INC, priority 2020, dated 2025):
Entries after “also recorded” stand apart in the source; their conditions may differ.

Key:
STING signaling [1] = assay: Confocal analysis of STING trafficking and IRF3 translocation in hTERT cells; format: cell-based, human; settings: 6 hours after ISD transfection
Experimental: FIG. 2E are photographs showing confocal analysis of STING trafficking using anti-Sting performed at 6 hours after ISD transfection with Y1+220/without 220, Mock is shown (210), ISD treatment only (220) was used as control, treatment same as in FIG. 2A, according to an embodiment of the invention;
Example 10: Immunofluorescence Microscopy: Cells were cultured and treated in their appropriate media on Lab-Tek II chamber slides. Cell were fixed with 4% paraformaldehyde for 15 minutes in at 37° C. and permeabilized with 0.05% Triton X-100 for 5 minutes at room temperature. Immunostaining was performed with rabbit-anti-STING polyclonal, rabbit-anti-IRF3 (Santa Cruz Biotechnology) or rabbit-anti-p65 (Cell Signaling) followed by fluorescence conjugated secondary antibodies (FITC-goat-anti-rabbit) (Invitrogen).

STING signaling [2] = assay: IFNβ ELISA in MEF cells after ISD treatment; format: cell-based, murine
Experimental: (§1) Example 9: Interferon β Elisa analysis: Interferon β Elisa was performed using either the IFNβ human ELISA Kit from Invitrogen or the Human IFNβ ELISA Kit from PBL Interferon Source following the manufacturer's protocol.

STING signaling [3] = assay: IFNβ ELISA in normal hTERT cells after ISD transfection; format: cell-based, human
Experimental: as §1

STING signaling [4] = assay: Luciferase live cell assay, type I IFN promoter in hTERT-pIFNβ-Glu cells after ISD transfection; format: cell-based, human; settings: hTERT-pIFNβ-Glu cells
Experimental: Inhibition of IFNβ expression was measured by Luciferase induction at 24 hours after transfection of ISD, Mock is shown (210), ISD treatment only (220) was used as a control, according to an embodiment of the invention;
Example 1: Identification of small molecule antagonists of STING. In the presence of cytosolic DNA species, STING becomes activated to drive the transcription of cytokines such as type I IFN. Compounds binding to STING via TSA were subsequently examined for their ability to prevent cytosolic DNA species from activating the type I interferon (IFN) promoter, using a live cell assay. This assay comprised immortalized human fibroblasts that were stably transfected with the type I IFN promoter driving luciferase as well as the CMV promoter driving SEAP (hTERT-pIFNβ-Glu). The live cell assay has previously been disclosed in PCT/JS2019/025380 entitled IFN-βETA REPORTER SYSTEM FOR IMMORTALIZED PRIMARY CELLS inventor Glen N. Barber, which was filed Apr. 2, 2018 and published as WO2019195285, and which is herein incorporated by reference in its entirety and for all purposes. The ability of the small molecules to prevent activation of the type I IFN promoter and the transcription of luciferase, but not SEAP in response to cytosolic DNA species was assessed. The activation of STING, typically by CDNs, in turn activates the transcription factors NF-κB and IRF3, both of which are required to induce the transcriptional stimulation of the Type I IFN promoter, but not the CMV promoter as IRF3 and NF-kB transcription factor binding sites are not contained in the CMV promoter. The assay identified the small molecule Compound Y1 in the first screen (HTS), where the level of luciferase was not able to activate the type I IFN promoter or induce the expression of luciferase (see Table I).
Example 4: hTERT-BJ1 Telomerase Fibroblasts (hTERT) were originally purchased from Clontech and were cultured in 4:1 ratio of DMEM:Medium 199 supplement with 10% FBS, 4 mM L-Glutamine and 1 mM sodium pyruvate at 37° C. in a 5% CO2-humidified atmosphere. hTERT-BJ1 Telomerase Fibroblasts stably expressing the luciferase gene under the control of the interferon-beta promoter and SEAP gene under control of the CMV promoter) (hTERT-pIFNβ-Glu) were generated by the Barber laboratory.
Example 7: Luciferase assay: hTERT-BJ1 Telomerase Fibroblasts stably expressing the luciferase gene under the control of the interferon-beta promoter and SEAP gene under control of the CMV promoter) (hTERT-pIFNβ-Glu) were generated by the Barber laboratory. Luciferase assay was performed using Secrete-Pair Dual Luminescence Assay Kit from GeneCopoeia following the manufacturer's protocol.

STING signaling [5] = assay: qPCR of IFNβ1 / Cxcl10 in normal hTERT cells after ISD transfection; format: cell-based, human
Experimental: Example 11: qPCR total RNA were reverse-transcribed using M-MLV Reverse Transcriptase (Promega). Real-time PCR was performed using Taqman Gene Expression Assay (Applied Biosystems) for innate immune genes and inflammatory cytokines.

In the case of `N#Cc1c(NC(=O)c2ccccc2Cl)n(Cc2ccccc2)c2nc3ccccc3nc12` [Compound Y1, N-{1-benzyl-3-cyano-1H-pyrrolo[2,3-ß]quinoxalin-2-yl}-2-chlorobenzamide], the “IRF3 translocation (confocal analysis)” value (STING signaling [1]) is reported as “able to prevent”, the “STING trafficking (confocal analysis)” value (STING signaling [1]) is reported as “effectively preventing STING trafficking; also recorded: able to prevent” and the “IFNβ production (ELISA)” value (STING signaling [2]) is reported as “reproducibly decreased the production of IFNβ; also recorded: dramatically decreased”. The “IFNβ production (ELISA)” value (STING signaling [3]) was “dramatically decreased IFNβ expression and production”, the “inhibition of activation of the type I IFN promoter (luciferase induction)” value (STING signaling [4]; 10 μM and 50 μM, ISD 3 μg/ml, 24 hours after transfection) was “inhibited activation of the type I IFN promoter; also recorded: exhibited inhibition of the activation of the type I IFN promoter” and the “inhibitory activity of the type I IFN promoter (luciferase induction)” value (STING signaling [4]; 50 μM or 25 μM, in response to ISD) was “showed robust inhibitory activity of the type I IFN promoter”. For the same compound, the “production of STING-inducible cytokine Cxcl10 (qPCR)” value (STING signaling [5]; normal hTERT cells stimulated with ISD, 50 μM, 25 μM or 5 μM) was “robustly inhibited” and the “IFNβ expression (qPCR of IFNβ1)” value (STING signaling [5]; normal hTERT cells, 6 hours after ISD transfection) was “dramatically decreased IFNβ expression and production”.
